Legend:
WRL-68 cells = assay: Neutral red cell viability assay; assay type: cell-based, human; conditions: SIN up to 1,000 μM, 72 hours
Description: The neutral red (NR) cytotoxicity assay is a chemosensitivity assay for measuring cell survival/viability, based on the ability of viable cells to incorporate and bind neutral red, a supravital dye. NR is a weak cationic dye that readily penetrates cell membranes by non-ionic diffusion, accumulating intracellularly in lysosomes, where it binds with anionic sites in the lysosomal matrix. Alterations of the cell surface or the sensitive lysosomal membrane lead to lysosomal fragility and other changes that gradually become irreversible. Such changes brought about by the action of xenobiotics result in a decreased uptake and binding of NR. It is thus possible to distinguish between viable, damaged, or dead cells. (Babich, H et al, 1990)
Three different cell lines HepG2, WRL-68 and Clone 9 cell lines were used in the experiment. HepG2 is a human hepatoblastoma cell line. It is a well known cell model in anti-HCC studies (Alshatwi A A, et al, 2006). WRL-68 is a human normal liver embryo cell line that has a morphologic structure similar to hepatocytes and hepatic primary cultures (Gutierrez-Ruiz, et al, 1994). This cell line was used as the control. Clone 9 is the rat Sprague Dawley (SD) liver normal cell line. […]
HepG2, WRL-68 and Clone 9 cells were grown in complete culture medium (RPMI or DMEM), trypsinized and washed. […] The color was measured at OD540nm.

[1] = test system: p53, Mdm2, p21, PCNA, Bax and Bcl-2; assay: Gene expression assay (semi-quantitative PCR, Western blot) in rat liver, progression stage; assay type: in vivo
Method: RNA was extracted from 300 μg of rat liver and was measured as described in foregoing examples Three micrograms of total RNA, 1 μl of an oligo dT primer and certain volume of RNase-Free H2O were mixed into a total volume of 12 μl. The mixture was incubated at 70° C. for 10 minutes and immediately chilled on ice. Four microliters of 5× First Stand Buffer, 2 μl of 0.1M DTT, 1 μl of 10 mM dNTP mix, and 1 μl of SuperScript II were added to each tube and mixed. The tubes were incubated at 42° C. for 50 minutes followed by 70° C. for 15 minutes before chilling on ice. The cDNA was then ready for PCR amplification.
The PCR reactions were performed in a final volume of 20 μl in a Gene Amp® PCR system. The PCR reaction mix contained 1 μl of cDNA synthesized previously, 2 μl 10×PCR Buffer, 0.4 μl 10 mM dNTP mix, 1.2 μl 25 mM MgCl2, 1 μl 10 mM primer mix, 0.2 μl recombinant Taq polymerase, and 14.2 μl autoclaved ddH2O.
The intensity of the PCR products was analyzed by the software Image J. The band intensity of the β-actin gene was measured as an internal control. The ratio of the band intensities of the target gene to the β-actin gene was used to compare the mRNA level of each gene between different treatment groups.
Three hundred micrograms of each liver sample were homogenized in the Solution C at 1 g/ml using a glass homogenizer on ice. The homogenate was transferred to a microcentrifuge tube and centrifuged at 13,000 rpm for 20 minutes. The supernatant was collected and equal volume of 2× sample loading dye was added to each sample. The samples were stored at −20° C. The protein was used for immunodetection of the expression level of Bax, Bcl-2, PCNA and p21.
Three hundreds micrograms of each liver sample were homogenized in Solution A at 1 g/ml using the glass homogenizer on ice. The homogenate was transferred into a microcentrifuge tube and centrifuged at 3,000 rpm for 5 minutes to spin down the unbroken tissue. The supernatant was collected and incubated on ice for 5 minutes and then centrifuged at 5,000 rpm for 5 minutes. The supernatant was discarded and the pellet was lysed by 100 μl Solution B. The lysing process lasted for 20 minutes on ice. After incubation, the solution was centrifuged at 12,000 rpm for 15 seconds to spin down the cell debris. The supernatant was collected and equal volume of 2× sample loading dye was added to each sample. The samples were ready for immunodetection of the expression level of p53 and mdm2.
Each of the transferred membrane blots was incubated in 4 ml TBST with 5% non-fat milk powder and primary antibody overnight at 4° C. After incubation, the membrane was washed in TBST buffer for 10 minutes for 3 times. Each transferred membrane blot was then incubated in 4 ml TBST and 5% non-fat milk powder with secondary antibody for 1 hour at room temperature. After incubation, the membrane was washed in TBST buffer for 10 minutes for 3 times. The membrane was ready for ECL reaction.
The films that captured the signal from the ECL reaction were scanned into the computer and analyzed by the software Image J to read the density of darkness.
Rats in the negative control group received weekly intraperitoneal (i.p.) injection of DMSO for the first 2 weeks and then Corn Oil for 28 weeks. Rats in the positive control and SIN-treatment groups both received weekly intraperitoneal (i.p.) injection of DEN for the first 2 weeks and then CCl4 for 28 weeks. Two weeks of fasting were inserted between DEN treatment and CCl4 treatment. Starting from 33rd week, negative and positive control groups received oral administration of water once a day. Sinigrin with dosage 15 mg/kg was administered orally to the SIN-treatment group daily for 24 weeks. After treatment, the rats were killed. Blood and liver were collected and processed as described in the foregoing examples.
The gene expression assays were performed as described in the foregoing examples. […]

C=CC/C(=N/OS(=O)(=O)[O-])S[C@@H]1OC(CO)[C@@H](O)C(O)C1O.[K+] (stereo partly shown) [SIN, sinigrin]
cell viability of WRL-68 cells (healthy liver cells) (WRL-68 cells): no decrease in cell viability was observed
Mdm2 mRNA expression ([1]; RT-PCR): reduced back to levels near or even lower than the negative control
p53 mRNA expression ([1]; RT-PCR): reduced back to levels near or even lower than the negative control
Bax protein expression (decreased in positive group) ([1]; Western blot): reversed
Bcl-2 protein expression (increased in positive group) ([1]; Western blot): reversed
Mdm2 protein expression (increase in positive control) ([1]; Western blot): partially reversed
PCNA protein expression (increased in positive group) ([1]; Western blot): reversed
p21 protein expression ([1]; Western blot): restored its expression to a level substantially higher than the negative control
total p53 protein level ([1]; Western blot): significantly increased
wild type p53 protein level ([1]; Western blot): restored its expression to a level even higher than that of the negative control
